The values that follow come from patent US20240158404A1, “MODULATORS OF ALPHA-1 ANTITRYPSIN” (Vertex Pharmaceuticals Incorporated, priority 2022, published 2024).

The structures appear in SMILES notation.

The test addresses T1, AAT (Homo sapiens, UniProt P01009, E366K).
T1 construct: expressed in transfected cells; host or cells: NL20 human bronchial epithelial cells (NL20-SI cell line), with doxycycline added alongside the compounds
Briefly: Compound Quality score (potency in AAT functional assay multiplied by unbound clearance). Conditions: compound potency (EC50) x unbound clearance; class symbols. From the text: As used herein, the term “Compound Quality” refers to the potency of a compound multiplied (x) by the compound's unbound clearance as measured using the assays described in Example 6.
The terms “unbound clearance” refer to unbound intrinsic clearance (unbound CLint) in hepatocytes—the intrinsic clearance a drug would have in the absence of protein binding. Unbound CLint=CLint,hep/fu,hep, where CLint,hep is intrinsic clearance in hepatocytes and fu,hep is unbound fraction in hepatocytes.
A key consideration for the selection of compounds suitable for clinical development is the projection of human dose as described in Equations 1-3. Two key parameters that comprise the dose equation are the unbound clearance of a compound and the plasma efficacious exposure (also referred to herein as compound potency). Together these parameters are known to one skilled in the art as a measurement of Compound Quality and suitability for advancement into clinical development. Thus, when evaluating AAT modulator compounds, one needs to consider both the potency and unbound clearance parameters (i.e., Compound Quality). The relationship between these two parameters can be challenging to predict.
The values provided in the table below are calculated by multiplying the EC50 of each of the compounds by the result from the clearance assay procedures described in Section C above and rounded to two significant figures. In the table below, the following meanings apply for Compound Quality (i.e., compound potency x unbound clearance) values: “++++” means ≤0.2; “+++” means >0.20 and ≤0.30; “++” means >0.30 and ≤0.40; “+” means >0.40 and ≤0.50.

T1 sequence (P01009 25-418 E366K): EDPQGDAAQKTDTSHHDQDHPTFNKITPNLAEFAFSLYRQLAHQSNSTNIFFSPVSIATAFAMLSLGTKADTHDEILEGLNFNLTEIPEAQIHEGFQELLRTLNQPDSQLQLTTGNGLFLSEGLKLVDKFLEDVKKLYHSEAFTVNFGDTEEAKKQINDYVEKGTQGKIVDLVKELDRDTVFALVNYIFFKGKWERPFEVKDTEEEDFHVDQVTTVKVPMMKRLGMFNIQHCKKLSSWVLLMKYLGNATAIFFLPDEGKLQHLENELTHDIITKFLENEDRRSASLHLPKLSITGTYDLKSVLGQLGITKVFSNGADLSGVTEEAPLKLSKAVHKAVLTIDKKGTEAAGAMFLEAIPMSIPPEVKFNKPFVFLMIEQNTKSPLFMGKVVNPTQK

On to `CC[C@](O)(COC)c1c(-c2ccc(C(=O)O)cc2)c2c(F)c3[nH]ncc3cc2n1-c1ccc(F)c(F)c1` [Compound 6], for which the “Compound Quality” value is “++ (“++” means >0.30 and ≤0.40)”. Consider `CC[C@](O)(COC)c1c(-c2ccc(C(=O)O)cc2)c2c(F)c3[nH]ncc3cc2n1-c1ccc(F)c(C)c1` [Compound 7], for which the “Compound Quality” value is “+++ (“+++” means >0.20 and ≤0.30)”. For `CC[C@](O)(COC)c1c(-c2ccc(C(=O)O)cc2)c2c(F)c3[nH]ncc3cc2n1-c1ccc(F)c(OC)c1` [Compound 8] the value was “+ (“+” means >0.40 and ≤0.50)”.

Turning to `CCOCC(O)(CC)c1c(-c2ccc(C(=O)O)cc2)c2c(F)c3[nH]ncc3cc2n1-c1ccc(F)c(OC)c1` (stereo not drawn) [Compound 9], the “Compound Quality” value is “+++ (“+++” means >0.20 and ≤0.30)”.

Take `[2H]C([2H])([2H])Oc1cc(-n2c([C@@](O)(CC)COC)c(-c3ccc(C(=O)O)cc3)c3c(F)c4[nH]ncc4cc32)ccc1F` [Compound 10]: the “Compound Quality” value was “++ (“++” means >0.30 and ≤0.40)”. For `CCOCC(O)(CC)c1c(-c2ccc(C(=O)O)cc2)c2c(F)c3[nH]ncc3cc2n1-c1ccc(F)c(F)c1` (stereo not drawn) [Compound 11] the value was “+++ (“+++” means >0.20 and ≤0.30)”; for `[2H]C([2H])([2H])C([2H])([2H])C(O)(COC)c1c(-c2ccc(C(=O)O)cc2)c2c(F)c3[nH]ncc3cc2n1-c1ccc(F)c(Cl)c1` (stereo not drawn) [Compound 12], “+++ (“+++” means >0.20 and ≤0.30)”; for `CCC(O)(COC(C)C)c1c(-c2ccc(C(=O)O)cc2)c2c(F)c3[nH]ncc3cc2n1-c1ccc(F)c(OC)c1` (stereo not drawn) [Compound 13], “+++ (“+++” means >0.20 and ≤0.30)”. As to `CCOCC(O)(c1c(-c2ccc(C(=O)O)cc2)c2c(F)c3[nH]ncc3cc2n1-c1ccc(F)cc1)C1CC1` (stereo not drawn) [Compound 14], the “Compound Quality” value is “++ (“++” means >0.30 and ≤0.40)”. Under `CC[C@@](O)(COC)c1c(-c2ccc(C(=O)O)cc2)c2c(F)c3[nH]ncc3cc2n1-c1cccc(F)c1` [Compound 15] stands “++ (“++” means >0.30 and ≤0.40)”; under `CC[C@@](O)(COC)c1c(-c2ccc(C(=O)O)cc2)c2c(F)c3[nH]ncc3cc2n1-c1cc(F)c(F)c(OC)c1` [Compound 16], “++ (“++” means >0.30 and ≤0.40)”; under `CCC(O)(COC)c1c(-c2ccc(C(=O)O)c(C)c2)c2c(F)c3[nH]ncc3cc2n1-c1ccc(F)c(F)c1` (stereo not drawn) [Compound 17], “+++ (“+++” means >0.20 and ≤0.30)”. Regarding `[2H]C([2H])([2H])C([2H])([2H])C(O)(COC)c1c(-c2ccc(C(=O)O)cc2)c2c(F)c3[nH]ncc3cc2n1-c1ccc(F)cc1` (stereo not drawn) [Compound 18], the “Compound Quality” value is “+++ (“+++” means >0.20 and ≤0.30)”. With `[2H]C([2H])([2H])C([2H])([2H])C(O)(COC)c1c(-c2ccc(C(=O)O)cc2)c2c(F)c3[nH]ncc3cc2n1-c1ccc(F)c(C)c1` (stereo not drawn) [Compound 19], the “Compound Quality” value was “+++ (“+++” means >0.20 and ≤0.30)”. For `[2H]C([2H])([2H])C([2H])([2H])C(O)(COC)c1c(-c2ccc(C(=O)O)cc2)c2c(F)c3[nH]ncc3cc2n1-c1ccc(F)c(OC)c1` (stereo not drawn) [Compound 20] the value was “++ (“++” means >0.30 and ≤0.40)”; for `[2H]C([2H])([2H])C([2H])([2H])C(O)(COC)c1c(-c2ccc(C(=O)O)cc2)c2c(F)c3[nH]ncc3cc2n1-c1ccc(F)c(F)c1` (stereo not drawn) [Compound 21], “++ (“++” means >0.30 and ≤0.40)”; for `[2H]C([2H])([2H])Oc1cc(-n2c(C3(O)CCCCC3OC)c(-c3ccc(C(=O)O)cc3)c3c(F)c4[nH]ncc4cc32)ccc1F` (stereo not drawn) [Compound 22], “++++ (“++++” means ≤0.2)”. As for `COC1CCCCC1(O)c1c(-c2ccc(C(=O)O)cc2)c2c(F)c3[nH]ncc3cc2n1-c1ccc(F)c(F)c1` (stereo not drawn) [Compound 23], the “Compound Quality” value is “+++ (“+++” means >0.20 and ≤0.30)”.

Consider `COc1cc(-n2c(C3(O)CCCCC3OC)c(-c3ccc(C(=O)O)cc3)c3c(F)c4[nH]ncc4cc32)ccc1F` (stereo not drawn) [Compound 24], for which the “Compound Quality” value was “+++ (“+++” means >0.20 and ≤0.30)”. As to `COC1CCCCC1(O)c1c(-c2ccc(C(=O)O)cc2)c2c(F)c3[nH]ncc3cc2n1-c1cccc(F)c1` (stereo not drawn) [Compound 25], the “Compound Quality” value was “+++ (“+++” means >0.20 and ≤0.30)”. Under `COC1CCCCC1(O)c1c(-c2ccc(C(=O)O)cc2)c2c(F)c3[nH]ncc3cc2n1-c1ccc(F)cc1` (stereo not drawn) [Compound 26] stands “++++ (“++++” means ≤0.2)”; under `COC1CCCC1(O)c1c(-c2ccc(C(=O)O)cc2)c2c(F)c3[nH]ncc3cc2n1-c1ccc(F)cc1` (stereo not drawn) [Compound 27], “++ (“++” means >0.30 and ≤0.40)”.

For `COC1CCCC1(O)c1c(-c2ccc(C(=O)O)cc2)c2c(F)c3[nH]ncc3cc2n1-c1ccc(F)c(F)c1` (stereo not drawn) [Compound 28], the “Compound Quality” value was “+++ (“+++” means >0.20 and ≤0.30)”. For `[2H]C1([2H])C([2H])([2H])C([2H])([2H])[C@](O)(c2c(-c3ccc(C(=O)O)cc3)c3c(F)c4[nH]ncc4cc3n2-c2ccc(F)cc2)[C@@]([2H])(OC)C1([2H])[2H]` [Compound 29], the “Compound Quality” value is “++++ (“++++” means ≤0.2)”. On to `[2H]C1([2H])C([2H])([2H])C([2H])([2H])[C@](O)(c2c(-c3ccc(C(=O)O)cc3)c3c(F)c4[nH]ncc4cc3n2-c2ccc(F)c(OC)c2)[C@@]([2H])(OC)C1([2H])[2H]` [Compound 30], for which the “Compound Quality” value is given as “++++ (“++++” means ≤0.2)”.

In the case of `[2H]C([2H])([2H])Oc1cc(-n2c([C@@]3(O)C([2H])([2H])C([2H])([2H])C([2H])([2H])C([2H])([2H])[C@]3([2H])OC)c(-c3ccc(C(=O)O)cc3)c3c(F)c4[nH]ncc4cc32)ccc1F` [Compound 31], the “Compound Quality” value was “++ (“++” means >0.30 and ≤0.40)”. Take `[2H]C([2H])([2H])Oc1cc(-n2c(C3(O)C([2H])([2H])C([2H])([2H])C([2H])([2H])C([2H])([2H])C3([2H])OC([2H])([2H])[2H])c(-c3ccc(C(=O)O)cc3)c3c(F)c4[nH]ncc4cc32)ccc1F` (stereo not drawn) [Compound 32]: the “Compound Quality” value was “+++ (“+++” means >0.20 and ≤0.30)”. Under `[2H]C([2H])([2H])OCC(O)(CC)c1c(-c2ccc(C(=O)O)cc2)c2c(F)c3[nH]ncc3cc2n1-c1ccc(F)c(F)c1` (stereo not drawn) [Compound 33] stands “+++ (“+++” means >0.20 and ≤0.30)”; under `[2H]C([2H])([2H])C([2H])([2H])C(O)(COC)c1c(-c2ccc(C(=O)O)cc2)c2c(F)c3[nH]ncc3cc2n1-c1ccc(F)c(F)c1` (stereo not drawn) [Compound 34], “++++ (“++++” means ≤0.2)”. As to `CCC(O)(COC)c1c(-c2ccc(C(=O)O)c(C)c2)c2c(F)c3[nH]ncc3cc2n1-c1ccc(F)cc1` (stereo not drawn) [Compound 35], the “Compound Quality” value was “++++ (“++++” means ≤0.2)”.

Consider `CCC(O)(COC)c1c(-c2ccc(C(=O)O)c(C)c2)c2c(F)c3[nH]ncc3cc2n1-c1ccc(F)c(Cl)c1` (stereo not drawn) [Compound 36], for which the “Compound Quality” value was “+++ (“+++” means >0.20 and ≤0.30)”. For `[2H]C([2H])([2H])C([2H])([2H])C(O)(COC)c1c(-c2ccc(C(=O)O)cc2)c2c(F)c3[nH]ncc3cc2n1-c1ccc(F)cc1` (stereo not drawn) [Compound 37] the value was “+++ (“+++” means >0.20 and ≤0.30)”. Turning to `[2H]C([2H])([2H])C([2H])([2H])C(O)(COC)c1c(-c2ccc(C(=O)O)cc2)c2c(F)c3[nH]ncc3cc2n1-c1ccc(F)c(C)c1` (stereo not drawn) [Compound 38], the “Compound Quality” value is “+++ (“+++” means >0.20 and ≤0.30)”. As to `CCC(O)(COC)c1c(-c2ccc(C(=O)O)c(C)c2)c2c(F)c3[nH]ncc3cc2n1-c1ccc(F)c(F)c1` (stereo not drawn) [Compound 39], the “Compound Quality” value is “+++ (“+++” means >0.20 and ≤0.30)”.

On to `CCC(O)(COC)c1c(-c2ccc(C(=O)O)c(C)c2)c2c(F)c3[nH]ncc3cc2n1-c1ccc(F)c(OC)c1` (stereo not drawn) [Compound 40], for which the “Compound Quality” value is “+++ (“+++” means >0.20 and ≤0.30)”. On to `CCC(O)(CCOC)c1c(-c2ccc(C(=O)O)cc2)c2c(F)c3[nH]ncc3cc2n1-c1ccc(F)cc1` (stereo not drawn) [Compound 41], for which the “Compound Quality” value was “+ (“+” means >0.40 and ≤0.50)”.

With `CC[C@@](O)(COC)c1c(-c2ccc(C(=O)O)cc2)c2c(F)c3[nH]ncc3cc2n1-c1cc(C)c(F)c(F)c1` [Compound 42], the “Compound Quality” value was “++ (“++” means >0.30 and ≤0.40)”. Turning to `COC1CCCC1(O)c1c(-c2ccc(C(=O)O)cc2)c2c(F)c3[nH]ncc3cc2n1-c1ccc(F)c(C)c1` (stereo not drawn) [Compound 43], the “Compound Quality” value was “+ (“+” means >0.40 and ≤0.50)”. For `CCC(O)(COC)c1c(-c2ccc(C(=O)O)c(C)c2)c2c(F)c3[nH]ncc3cc2n1-c1cccc(F)c1` (stereo not drawn) [Compound 44], the “Compound Quality” value is “+ (“+” means >0.40 and ≤0.50)”. With `[2H]C([2H])([2H])OCC(O)(CC)c1c(-c2ccc(C(=O)O)cc2)c2c(F)c3[nH]ncc3cc2n1-c1ccc(F)c(OC([2H])([2H])[2H])c1` (stereo not drawn) [Compound 45], the “Compound Quality” value was “+++ (“+++” means >0.20 and ≤0.30)”. For `[2H]C([2H])([2H])Oc1cc(-n2c(C(O)(COC)C([2H])([2H])C([2H])([2H])[2H])c(-c3ccc(C(=O)O)cc3)c3c(F)c4[nH]ncc4cc32)ccc1F` (stereo not drawn) [Compound 46] the value was “+++ (“+++” means >0.20 and ≤0.30)”. `[2H]C([2H])([2H])C([2H])([2H])C(O)(COC)c1c(-c2ccc(C(=O)O)cc2)c2c(F)c3[nH]ncc3cc2n1-c1ccc(F)c(OC)c1` (stereo not drawn) [Compound 47]: the “Compound Quality” value was “+++ (“+++” means >0.20 and ≤0.30)”.
